Measurements taken from patent US11674959B2, “Methods for identifying and preparing pharmaceutical agents for activating Tie1 and/or Tie2 receptors” (The Johns Hopkins University, priority 2017, dated 2023).

Legend:
phospho-Tie2 (Y992) = experiment: Immunofluorescence of MEC monolayers for phospho-Tie2 (Y992); type: cell-based, human; details: 200 ng/ml Ang2 for fifteen minutes plus AXT107
Description: As such, subsequent experiments evaluate the effects of AXT107 at cell-cell junctions in MEC monolayers using immunofluorescence microscopy rather than at the EC-ECM interface.
Human dermal microvascular endothelial cells (Lonza) were maintained at 37° C. and 5% CO2 in EBM-2MV medium (Lonza) and used between passages two through seven. Where applicable, cells were serum starved in EBM-2 medium (Lonza) with no supplements. For FITC-Dextran permeability assays phenol red-free media were used to avoid auto-fluorescence. AXT107 were manufactured at New England Peptide by […], lyophilized, and dissolved in 100% DMSO.
(§1) Glass-bottomed, 96-well plates with half well size were coated with 10 μg/ml FN1 for two hours at 37° C. The FN1 solution was then removed by aspiration and the plate seeded with 4×10^3 MECs in EGM-2MV media. After twenty-four hours, the cells were washed once with dPBS containing Ca^2+ and Mg^2+ to remove dead cells and the cells were allowed to grow for an additional twenty-four hours. For three-hour duration treatments (i.e., VE-cadherin), cells were washed twice with dPBS containing Ca^2+ and Mg^2+ and serum starved in EBM-2 for ninety minutes. The media was then removed and the cells were treated for three hours with 100 μl of EBM-2 media containing 200 ng/ml Ang2 or PBS and varying concentrations of AXT107 or DMSO. […]

[1] = molecular target: T1, α5 and β1 integrin subunits (Homo sapiens, UniProt P05556+P08648); experiment: Duolink protein interaction analysis of α5 and β1 integrin in MEC monolayers; type: cell-based; details: 100 μM AXT107 compared to vehicle
T1 construct: host or cells: human dermal microvascular endothelial cells (MECs)
Description: Additionally, changes in the interaction between the α5 and β1 subunits were further investigated using Duolink™ technology which can visualize individual interactions between α5 and β1 integrin subunits as distinct spots by fluorescence microscopy.
Glass bottom, 96-well plates were coated with FN1, seeded with MECs, as described above for the immunofluorescence experiments. After growing for forty-eight hours, cells were serum starved for three hours, treated with 100 μM AXT107 or DMSO vehicle for ninety minutes, washed twice with dPBS containing Ca^2+ and Mg^2+, and fixed in 10% neutral buffered formalin. Cells were blocked in 5% normal goat serum; 0.3% Triton X-100 in dPBS containing Ca^2+ and Mg^2+ for one hour and incubated overnight at 4° C. with rabbit anti-α5 integrin and mouse anti-β1 integrin antibodies in PBS containing Ca^2+ and Mg^2+ with 1% BSA and 0.1% Triton X-100. Interaction spots were developed using DUOLINK green detection reagent according to the manufacturer's instructions and detected using the BD pathway 855 system.

MEC monolayers = experiment: Immunofluorescence of MEC monolayers for VE-cadherin and F-actin; type: cell-based, human; details: 200 ng/ml Ang2, increasing concentrations of AXT107
Description: (§2) The jaggedness of these junctions is related to the structure of actin within the cell.
as §1, with “DMSO. For fifteen minute-treated samples (i.e., phospho-Tie2), the cells were serum starved in EBM-2 media for 165 minutes, incubated for ninety minutes with varying concentrations of AXT107 or DMSO in EBM-2, and finally stimulated for fifteen minutes with 200 ng/ml Ang2 or PBS supplemented with peptide to retain the same concentrations. These times were chosen so that both treatment procedures would be completed at the same time. The cells were then washed twice with cold dPBS containing Ca^2+ and Mg^2+ and fixed in 10% neutral buffered formalin for fifteen minutes.” for “DMSO.”

VE-cadherin = experiment: Western blot of VE-Cadherin from MEC monolayers; type: cell-based, human; details: three hours of AXT107 and Ang2 treatment
Description: as §2
For Ang1/2 signaling investigations, cell culture dishes (10 cm diameter) were coated with 5 μg/ml fibronectin (FN1; Sigma-Aldrich, St. Louis, Mo.) for two hours at 37° C. The FN1 solution was then removed by aspiration and 5×10^6 microvascular endothelial cells (MECs; Lonza, Walkersville, Md.) were plated in EGM-2MV media (Lonza) and cultured for forty-eight hours at 37° C. The cells were then serum starved for sixteen hours in serum-free EGM-2 base media (Lonza). […] The cells were then transferred to ice, washed twice with ice cold Dulbecco's phosphate-buffered saline (dPBS) containing Ca^2+ and Mg^2+, and collected by scraping in 500 μl of 1× Blue Loading Buffer (Cell Signaling, Danvers, Mass.). […] Specific proteins were identified by Western blot, using the following primary antibodies: Cell Signaling—phospho-Tie2 (Y992) (Cat #: 4221), Tie2 (Cat #: 7403), phospho-Stat3 (Y705) (Cat #: 4113), Stat3 (Cat #: 4904), phospho-Akt (S473) (Cat #: 4058), Akt (Cat #: 9272), phospho-p44/42 MAPK (T202/Y204) (Cat #: 4370), p44/42 MAPK (Cat #: 4695); BD Transduction Laboratories—β1 integrin (Cat #: 610467); Millipore—α5 integrin (Cat #: AB1928) and detected with HRP-conjugated goat anti-rabbit and sheep anti-mouse secondary antibodies (GE healthcare).

[2] = tested on: VEGFR2, cMet, PDGFRβ, and IGF1R; details: VEGFR2, c-Met, literature; cited from earlier work

T1 sequence (P08648 42-894 limits assumed): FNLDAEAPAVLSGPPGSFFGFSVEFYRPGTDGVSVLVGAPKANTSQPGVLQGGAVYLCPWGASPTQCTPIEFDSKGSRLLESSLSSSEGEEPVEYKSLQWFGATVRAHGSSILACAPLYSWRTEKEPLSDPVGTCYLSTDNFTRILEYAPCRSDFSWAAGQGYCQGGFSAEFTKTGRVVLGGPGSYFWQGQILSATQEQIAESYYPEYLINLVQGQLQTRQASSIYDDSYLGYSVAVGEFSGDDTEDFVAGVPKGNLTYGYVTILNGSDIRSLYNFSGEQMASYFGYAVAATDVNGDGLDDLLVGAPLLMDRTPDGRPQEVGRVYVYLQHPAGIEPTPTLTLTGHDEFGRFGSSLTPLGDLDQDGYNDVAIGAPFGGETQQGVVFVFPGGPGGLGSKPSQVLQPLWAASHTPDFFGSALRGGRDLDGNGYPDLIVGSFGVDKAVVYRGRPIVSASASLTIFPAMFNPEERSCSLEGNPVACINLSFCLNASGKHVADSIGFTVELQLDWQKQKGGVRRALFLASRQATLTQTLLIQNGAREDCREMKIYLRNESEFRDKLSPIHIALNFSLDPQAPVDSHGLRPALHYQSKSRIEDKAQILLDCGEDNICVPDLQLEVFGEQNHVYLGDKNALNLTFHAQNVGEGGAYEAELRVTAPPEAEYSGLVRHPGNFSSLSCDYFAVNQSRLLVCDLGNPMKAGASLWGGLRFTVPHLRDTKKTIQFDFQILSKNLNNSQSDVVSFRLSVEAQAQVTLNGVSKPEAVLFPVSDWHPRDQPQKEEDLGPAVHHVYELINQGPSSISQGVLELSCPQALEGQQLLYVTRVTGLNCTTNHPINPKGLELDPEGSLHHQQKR
T1 sequence (P08648 895-1049 limits assumed): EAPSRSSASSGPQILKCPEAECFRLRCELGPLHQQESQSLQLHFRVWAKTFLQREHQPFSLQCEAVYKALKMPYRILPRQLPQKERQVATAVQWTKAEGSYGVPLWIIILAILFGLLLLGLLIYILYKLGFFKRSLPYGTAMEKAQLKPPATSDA
T1 sequence (P05556 21-798): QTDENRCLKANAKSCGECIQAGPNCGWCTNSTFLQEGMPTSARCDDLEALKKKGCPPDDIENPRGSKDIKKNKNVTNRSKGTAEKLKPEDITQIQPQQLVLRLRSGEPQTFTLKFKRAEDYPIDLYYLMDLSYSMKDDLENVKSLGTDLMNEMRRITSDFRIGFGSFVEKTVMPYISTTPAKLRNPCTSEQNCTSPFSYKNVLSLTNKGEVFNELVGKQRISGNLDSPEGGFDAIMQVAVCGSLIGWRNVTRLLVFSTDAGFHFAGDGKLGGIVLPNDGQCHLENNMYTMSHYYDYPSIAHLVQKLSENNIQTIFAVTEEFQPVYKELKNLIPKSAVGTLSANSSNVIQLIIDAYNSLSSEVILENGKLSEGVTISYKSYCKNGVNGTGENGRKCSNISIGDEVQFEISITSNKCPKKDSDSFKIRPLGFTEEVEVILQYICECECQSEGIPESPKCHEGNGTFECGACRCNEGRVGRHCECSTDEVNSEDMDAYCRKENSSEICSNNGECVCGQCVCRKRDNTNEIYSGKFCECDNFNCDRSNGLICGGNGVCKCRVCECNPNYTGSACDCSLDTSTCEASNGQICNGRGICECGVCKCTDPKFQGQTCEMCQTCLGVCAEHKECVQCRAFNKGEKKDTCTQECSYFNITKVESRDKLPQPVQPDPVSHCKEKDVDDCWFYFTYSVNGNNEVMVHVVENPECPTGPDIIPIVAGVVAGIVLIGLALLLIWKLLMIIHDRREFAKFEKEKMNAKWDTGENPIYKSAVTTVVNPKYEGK

LRRFSTAPFAFIDINDVINF [AXT107]
phospho-Tie2 fluorescence intensity and distribution (phospho-Tie2 (Y992)): increased overall fluorescence intensity and redistributed phospho-Tie2 along cell-cell junctions and into large clusters | Interactions between α5 and β1 integrin subunits (Duolink) [1]: significantly reduced | Actin fiber arrangement (MEC monolayers): became more cortical with increasing concentrations of AXT107 | Distribution of VE-cadherin at junctions (MEC monolayers): became progressively smoother with increasing concentrations of AXT107 | Total level of VE-cadherin (VE-cadherin): remained unchanged | Receptor phosphorylation and downstream signals of RTKs [2]: significantly decreases receptor phosphorylation and downstream signals
